In data set [1] the test system is isolated islets from BALB/c mice. The data set is described as follows: Insulin secretion in isolated islets (mouse insulin ELISA). To be noted: FK506 0.01, 0.1 and 1 μM for 97 h, p < 0.05 for 0.01 μM, p < 0.01 for 0.1 and 1 μM, dose-dependent. It counts as cell-based. Here is the method: (§1) After 48, 96, or 144 hours, fresh medium was added; the samples taken to investigate the release of insulin were taken 1 hour later and assayed with a mouse insulin ELISA kit (Shibayagi, Shibukawa, Gunma, Japan).

Another data set deals with βTC6 cells. In words: Insulin secretion in βTC6 cells (mouse insulin ELISA). To be noted: FK506 0.01, 0.1 and 1 μM for 97 h, p < 0.05 for 0.01 μM, p < 0.01 for 0.1 and 1 μM, dose-dependent. It counts as cell-based. Here is the method: as §1
The subject of another data set is secretion of insulin. As to conditions: cited from earlier work. The text has this: An important mechanism whereby calcineurin promotes the activation of T cells and the induction of cytokine-related genes is largely attributed to a family of transcriptional regulators that are referred to as NFAT. The immunosuppressants cyclosporine A and FK506, which are used clinically to prevent transplant rejection, inhibit the activity of calcineurin phosphatase on all its protein substrates, including NFAT[1], [2].

In data set [2] the test system is IL-2 protein in Jurkat cells. The data set is described as follows: Inhibition of the production of IL-2 (ELISA of supernatant). It counts as cell-based, human. To be noted: 100 nM FK506, then PMA and ionomycin 12 h. The procedure: Jurkat cells (1 × 10^5) were treated with medium containing peptides or FK506, then incubated with the same amount of medium containing 200 nM PMA (Sigma-Aldrich) and 4 μM ionomycin for an additional 12 h. IL-2 protein was detected in the supernatant of cells using an ELISA kit according to the manufacturer’s instructions (eBioscience, San Diego, CA, USA).

Data set [3] relates to GFP-NFAT-1 in HEK293 cells. In words: Inhibition of GFP-NFAT-1 nuclear translocation. It counts as cell-based. To be noted: 1 μM FK506 for 2 h, then 500 nM ionomycin 15 min; transfected HEK 293 cells; five independent experiments. Here is the method:
HEK293 cells (ATCC) were plated onto glass cover slips in 35-mm culture dishes. GFP-NFAT-1 plasmid[6] was transfected with Lipofectamine 2000 (ThermoFisher Scientific K.K., Yokohama, Japan). […] The nuclear fluorescence intensity was quantified using a Fluoview device (Olympus, Tokyo, Japan) and measured with AquaCosmos software (Hamamatsu Photonics). The fluorescent intensity of 10 cells was counted; five sets of experiments were conducted. Background fluorescent intensity was subtracted from all experiments.

Regarding `C=CC[C@@H]1/C=C(\C)C[C@H](C)C[C@H](OC)[C@H]2O[C@@](O)(C(=O)C(=O)N3CCCC[C@H]3C(=O)O[C@H](/C(C)=C/[C@@H]3CC[C@@H](O)[C@H](OC)C3)[C@H](C)[C@@H](O)CC1=O)[C@H](C)C[C@@H]2OC` [FK506], the Insulin secretion entry (in data set [1]; in the data set with βTC6 cells) was “significantly inhibited” in each case. The Secretion of insulin result with secretion of insulin is recorded as “dose-dependent decrease”. The “Production of IL-2” value in data set [2] is listed as “completely inhibited”. Also, the “Ionomycin-induced GFP-NFAT-1 nuclear translocation” value in data set [3] is reported as “strong inhibition”.

These data come from PMC5465209 (Scientific Reports, 2017).
